# Experimental data as given in patent US4210671A, “Abietamide derivatives, their production and use” (priority 1974, dated 1980).
# Tested on: cholesterol in blood
# Test: Reduction of blood cholesterol in rats fed a cholesterol diet
# Assay type: in vivo
# Conditions: male rats, 3 days, relative value: control group = 0, normal group = 100, * 5%, ** 1% significance over control; for % Inhibition (blood cholesterol), Dose in Diet 0.03%: 0.03% test compound in diet with 1% cholesterol and 0.25% sodium cholate; for % Inhibition (blood cholesterol), Dose in Diet 0.1%: 0.1% test compound in diet with 1% cholesterol and 0.25% sodium cholate
# Protocol: A completely synthetic diet containing 1% of cholesterol, 0.25% of sodium cholate and 0.03% and 0.1% of the test compound is given to a group of 6 male rats having a body weight of about 50 g consecutively for 3 days, and the rats are fasted overnight. Then, the rats are decapitated, and their blood is collected to determine the cholesterol concentration in the collected blood. The concentration of cholesterol in blood is measured with Technicon Autoanalyzer (Technicon Laboratory: Method File N-24a).
# Each value shown in the Table is a relative value determined based on the supposition that the value of the control group (the cholesterol-administered group) is 0 and the value of the normal group (the non-cholestero-administered group) is 100.
Molecule,"% Inhibition (blood cholesterol), Dose in Diet 0.03%","% Inhibition (blood cholesterol), Dose in Diet 0.1%"
CC(C)C1=CC2=CC[C@@H]3[C@](C)(CCC[C@@]3(C)C(=O)NC3CCCC3)[C@H]2CC1 [N-Cyclopentylabietamide],11%,32%
N-Benzyldihydroabietamide,25%,64%
N-Methyl-N-phenyldihydroabietamide,-8%,27%
N-α-Phenylethyldihydroabietamide,71%,99%
